Each molecule was assayed against T1, glucagon receptor (Homo sapiens, UniProt P47871) (assay: glucagon receptor binding assay (125I-glucagon, CHO-HGR membranes)). Details: 20 μM; reported where 20 μM did not reduce glucagon binding by 50%.
T1 construct: expressed in transfected cells; host or cells: Chinese Hamster Ovary cells (CHO-HGR), membranes
T1 sequence (P47871 26-477): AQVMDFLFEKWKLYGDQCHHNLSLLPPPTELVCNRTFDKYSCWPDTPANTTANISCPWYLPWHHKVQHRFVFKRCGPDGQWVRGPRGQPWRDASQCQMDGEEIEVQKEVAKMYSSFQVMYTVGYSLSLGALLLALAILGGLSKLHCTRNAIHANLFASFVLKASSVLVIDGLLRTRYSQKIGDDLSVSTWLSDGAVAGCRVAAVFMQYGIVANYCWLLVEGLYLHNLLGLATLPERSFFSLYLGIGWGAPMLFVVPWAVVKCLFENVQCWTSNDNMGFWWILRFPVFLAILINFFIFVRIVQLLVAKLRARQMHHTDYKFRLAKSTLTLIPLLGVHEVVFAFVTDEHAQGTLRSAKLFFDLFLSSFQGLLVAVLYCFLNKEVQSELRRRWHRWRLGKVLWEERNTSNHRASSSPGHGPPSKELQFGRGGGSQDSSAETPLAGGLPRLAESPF
In short: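 Membranes from CHO cells expressing glucagon receptor (10 ug protein) in Tris pH 7.4 buffer with EDTA, BSA and bacitracin, incubated with test compound and 125I-glucagon (9 fmol) 60 min at room temperature. Bound radioactivity counted after filtration; nonspecific binding defined with 1 μM native glucagon; 0.5% DMSO.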
In the case of `CCc1nc(CC)c(CO)c(-c2ccccc2)c1CC` [Example 9], the inhibition at 20 µM is reported as 16.6%. Molecule `CC(C)c1nc(C(C)C)c(CN2CCC(c3ccccc3)CC2)c(-c2ccc(F)cc2)c1CO` [Example 72] has an inhibition at 20 µM of 42.1%. For `CC(C)c1nc(C(C)C)c(Cn2ccnc2)c(-c2ccc(F)cc2)c1CO` [Example 76, 2,6-Diisopropyl-3-hydroxymethyl-4-(4-fluorophenyl)-5-(imidazol-1-yl)-methylpyridine], the inhibition at 20 µM was 5.18%. Work on `CCCCCc1c(C(C)C)nc(C(C)C)c(CO)c1-c1ccc(OC)cc1` [Example 169, 2,6-Diisopropyl-3-hydroxymethyl-4-(4-methoxyphenyl)-5-pentyl-pyridine] yielded an inhibition at 20 µM of 37.1%. For `CCCCC(O)c1c(C(C)C)nc(C(C)C)c(CO)c1-c1ccc(F)cc1` (racemic) [Example 95, (±)-2,6-Diisopropyl-3-hydroxymethyl-4-(4-fluorophenyl)-5-(1-hydroxy-pentyl)pyridine], the inhibition at 20 µM was 26.5%. `CCCCCc1c(C(C)C)nc(C(C)C)c(C(O)C[S@+]([O-])c2ccc(C)cc2)c1-c1ccc(F)cc1` (single isomer, unassigned) [Example 112] gave an inhibition at 20 µM of 4.17%. With `CCCC=Cc1c(C(C)C)nc(C(C)C)c(CO)c1-c1ccc(Cl)c(Cl)c1` [Example 149, 2,6-Diisopropyl3-hydroxymethyl-4-(3,4-dichlorophenyl)-5-(pent-1-enyl)pyridine] the inhibition at 20 µM was 39%. Work on `C=CCc1c(C)cc(C)c(C(C)O)c1-c1ccc(F)cc1` (centres unmarked) [Example 196, 3,5-Dimethyl-2-(1-hydroxyethyl)-6-(prop-2-enyl)-4'-fluoro-1,1'-biphenyl] yielded an inhibition at 20 µM of 40.3%. Molecule `CCCCCc1c(C(C)C)nc(C(C)C)c(CO)c1-c1ccc(C(C)C)cc1` [Example 134, 2,6-Diisopropyl-3-hydroxymethyl-4-(4-isopropylphenyl)-5-pentylpyridine] has an inhibition at 20 µM of 34.4%. `CCC/C=C/c1c(C(C)C)nc(C(C)C)c(CO)c1-c1ccc(C(F)(F)F)cc1` [Example 125, 2,6-Diisopropyl-3-hydroxymethyl-4-[(4-trifluoromethyl)phenyl]-5(pent-1-enyl)pyridine] showed an inhibition at 20 µM of 31.6%. Work on `C=CC(O)c1nc(C(C)C)c(CO)c(-c2ccc(F)cc2)c1CCCCC` (centres unmarked) [Example 206, 2-(1-Hydroxyprop-2-enyl)-3-pentyl-4-(4-fluorophenyl)-5-hydroxymethyl-6-isopropylpyridine] yielded an inhibition at 20 µM of 44.6%. `CC(C)c1nc(C(C)C)c(CCCCCCCN(C)C)c(-c2ccc(F)cc2)c1CO` [Example 90] gave an inhibition at 20 µM of 29.1%. `C=CC(O)c1c(C(C)C)nc(C(C)C)c(CCCCC)c1-c1ccc(F)cc1` (racemic) [Example 114, (±)-2,6-Diisopropyl-3-(1-hydroxy-2-propenyl)-4-(4-fluorophenyl)-5-pentylpyridine] gave an inhibition at 20 µM of 38.5%. With `CCCCCc1c(C(C)C)nc(C(C)C)c(CO)c1-c1cccc(C)c1` [Example 140, 2,6-Diisopropyl-3-hydroxymethyl-4-(3-methylphenyl)-5-pentylpyridine] the inhibition at 20 µM was 46.3%. Molecule `CCCCCc1c(CO)nc(C(C)C)c(CO)c1-c1ccc(F)cc1` [Example 200, 2,5-Bis(hydroxymethyl)-3-pentyl-4-(4-fluorophenyl)-6-isopropylpyridine] has an inhibition at 20 µM of 32.8%.

Same assay, conditions: 125I-glucagon; 60 min at room temperature; read-out: IC50
Molecule `CC=Cc1c(C(C)C)nc(C(C)C)c(CO)c1-c1ccc(F)cc1` [Example 21, 2,6-Diisopropyl-3-hydroxymethyl-4-(4-fluorophenyl)-5-(1-propenyl)-pyridine] has an IC50 of 800 nM. `Cc1ccc(SCc2c(C(C)C)nc(C(C)C)c(CO)c2-c2ccc(F)cc2)cc1` [Example 50, 2,6-Diisopropyl-3-hydroxymethyl-4-(4-fluorophenyl)-5-[((4-methyl)-phenyl)thio]methylpyridine] was tested, and the IC50 was 900 nM. For `CCCCCCCCc1c(C(C)C)nc(C(C)C)c(CO)c1-c1ccc(F)cc1` [Example 36, 2,6-Diisopropyl-3-hydroxymethyl-4-(4-fluorophenyl)-5-octylpyridine], the IC50 was 1800 nM. Work on `CC(C)c1ccc(SCc2c(C(C)C)nc(C(C)C)c(CO)c2-c2ccc(F)cc2)cc1` [Example 63, 2,6-Diisopropyl-3-hydroxymethyl-4-(4-fluorophenyl)-5-[(4-isopropyl-phenyl)thio]methylpyridine] yielded an IC50 of 1700 nM. In the case of `CCCCCc1c(C(C)C)nc(C(C)C)c(CO)c1-c1cccnc1` [Example 186, 2,6-Diisopropyl-3-hydroxymethyl-4-(pyridin-3-yl)-5-pentylpyridine], the IC50 is reported as 20000 nM. `CC(C)c1nc(C(C)C)c(CO)c(-c2ccc(F)cc2)c1/C=C/c1ccccc1` [Example 34, 2,6-Diisopropyl-3hydroxymethyl-4-(4-fluorophenyl)-5-[2(E)-phenyl-ethenyl]pyridine] gave an IC50 of 600 nM. For `CC1=CC(C)(C)Cc2c1nc(C(C)C)c(CO)c2-c1ccc(F)cc1` [Example 236, 2-Isopropyl-3-hydroxymethyl-4-(4-fluorophenyl)-5,6-dihydro-6,6,8-trimethylquinoline], the IC50 was 4000 nM. Work on `CCCCCc1c(C(C)C)cc(C(C)C)c(C(C)O)c1-c1ccc(F)cc1` (single isomer, unassigned; (+)) [Example 193, (+)-3,5-Diisopropyl-2-(1-hydroxyethyl)-6-pentyl-4'-fluoro-1,1-biphenyl] yielded an IC50 of 86 nM. In the case of `CCCCCc1c(C=CC(=O)OC)nc(C(C)C)c(CO)c1-c1ccc(F)cc1` [Example 215, 2-(2-Carbomethoxyethenyl)-3-pentyl-4-(4-fluorophenyl)-5-hydroxymethyl-6-isopropylpyridine], the IC50 is reported as 19000 nM. Work on `CC(C)CC=Cc1c(C(C)C)nc(C(C)C)c(CO)c1-c1ccc(F)cc1` [Example 28, 2,6Diisopropyl-3-hydroxymethyl-4-(4-fluorophenyl)-5-(4-methyl-1-pentenyl)pyridine] yielded an IC50 of 1000 nM. Work on `CC(C)c1nc2c(c(-c3ccc(F)cc3)c1C(C)O)CCC2(C)C` (centres unmarked) [Example 235, 2-Isopropyl-3-(1-hydroxyethyl)-4-(4-fluorophenyl)-7,7-dimethyl-5H-cyclopenta[b]pyridine] yielded an IC50 of 3100 nM. In the case of `CCCCCc1c(C(C)C)nc(C(C)C)c(CO)c1-c1cccc(O)c1` [Example 153, 2,6-Diisopropyl-3-hydroxymethyl-4-(3-hydroxyphenyl)-5-pentylpyridine], the IC50 is reported as 6000 nM. With `CCC=Cc1c(C(C)C)nc(C(C)C)c(CO)c1-c1ccc(F)cc1` [Example 20, 2,6-Diisopropyl-3-hydroxymethyl-4-(4-fluorophenyl)-5-(l-butenyl)-pyridine] the IC50 was 1300 nM. With `CCc1c(C(C)C)cc(C(C)C)c(C(C)O)c1-c1ccc(F)cc1` (single isomer, unassigned; (+)) [Example 244, (+)-3,5-Diisopropyl-2-(1-hydroxyethyl)-6-ethyl-4'-fluoro-1,1'-biphenyl] the IC50 was 180 nM. With `CCCC=Cc1c(C(C)C)nc(C(C)C)c(CO)c1-c1cccc(C)c1` [Example 139, 2,6-Diisopropyl-3-hydroxymethyl-4-(3-methylphenyl)-5-(pent-1-enyl)-pyridine] the IC50 was 17000 nM. Molecule `CCCCCc1c(C(C)C)nc(C(C)C)c(CO)c1-c1ccc(F)cc1` [Example 1] has an IC50 of 600 nM. `CCCSCc1c(C(C)C)nc(C(C)C)c(CO)c1-c1ccc(F)cc1` [Example 66, 2,6-Diisopropyl-3-hydroxymethyl4-(4-fluorophenyl)-5-(propylthio)-methylpyridine] gave an IC50 of 1000 nM. `CCCCCc1c(CCC(C)C)nc(C(C)C)c(CO)c1-c1ccc(F)cc1` [Example 229, 2-Isopropyl-3-hydroxymethyl-4-(4-fluorophenyl)-5-pentyl-6-(3-methylbutyl)pyridine] showed an IC50 of 800 nM. Molecule `CC(C)c1cc(C(C)C)c(CSc2c(F)c(F)c(Cl)c(F)c2F)c(-c2ccc(F)cc2)c1CO` [Example 287] has an IC50 of 20000 nM. With `CC(C)c1nc(C(C)C)c(CNC2CC2)c(-c2ccc(F)cc2)c1CO` [Example 77, 2,6-Diisopropyl-3-hydroxymethyl-4-(4-fluorophenyl)-5-(cyclopropyl-amino)methylpyridine] the IC50 was 6000 nM. Molecule `CC(C)c1nc(C(C)C)c(CSCCc2ccccc2)c(-c2ccc(F)cc2)c1CO` [Example 65, 2,6-Diisopropyl-3-hydroxymethyl-4-(4-fluorophenyl)-5-[(phenethyl)-thiomethyl]pyridine] has an IC50 of 750 nM. `CCCC=Cc1c(C(C)C)nc(C(C)C)c(CO)c1-c1ccc(C)cc1` [Example 129, 2,6-Diisopropyl-3-hydroxymethyl-4-(4-methylphenyl)-5-(Pent-1-enyl)-pyridine] showed an IC50 of 1500 nM. For `CCCCCc1c(COCC)nc(C(C)C)c(CO)c1-c1ccc(F)cc1` [Example 202, 2-Ethoxymethyl-3-pentyl-4-(4-fluorophenyl)-5-hydroxymethyl-6-isopropylpyridine], the IC50 was 9000 nM. `CCCCc1c(C(C)C)nc(C(C)C)c(CO)c1-c1ccccc1` [Example 18, 2,6-Diisopropyl-3-hydroxymethyl-4-phenyl-5-butylpyridine] was tested, and the IC50 was 750 nM. Work on `CC(C)c1nc(C(C)C)c(CNC2CCCCC2)c(-c2ccc(F)cc2)c1CO` [Example 78, 2,6-Diisopropyl-3-hydroxymethyl-4-(4-fluorophenyl)-5-(cyclohexylamino)methylpyridine] yielded an IC50 of 7500 nM. With `CC(C)c1nc(C(C)C)c(CSc2ccc([N+](=O)[O-])cc2)c(-c2ccc(F)cc2)c1CO` [Example 68, 2,6-Diisopropyl-3-hydroxymethyl-4-(4-fluorophenyl)-5-[(4-nitrophenyl)-thio]methylpyridine] the IC50 was 13000 nM. `COc1ccc(SCc2c(C(C)C)nc(C(C)C)c(CO)c2-c2ccc(F)cc2)cc1` [Example 56, 2,6-Diisopropyl-3-hydroxymethyl-4-(4-fluorophenyl)-5-[(4-methoxy-phenyl)thio]methylpyridine] gave an IC50 of 1900 nM. `COc1cccc(SCc2c(C(C)C)nc(C(C)C)c(CO)c2-c2ccc(F)cc2)c1` [Example 54, 2,6-Diisopropyl-3-hydroxymethyl-4-(4-fluorophenyl)-5-[(3-methyoxy-phenyl)thio]methylpyridine] was tested, and the IC50 was 1800 nM. Work on `CCCCCc1c(C=C(C)C)nc(C(C)C)c(CO)c1-c1ccc(F)cc1` [Example 226, 2-Isopropyl-3-hydroxymethyl-4-(4-fluorophenyl)-5-pentyl-6-(2-methylpropenyl)pyridine] yielded an IC50 of 3000 nM.

— US6218431A, “Substituted biphenyls” (Bayer Corporation, priority 1997, dated 2001)
